Source: article PMC9927415, “Tyrosine Kinase Inhibitors Display Potent Activity against Cryptosporidium parvum” (Microbiology Spectrum, 2022)
Read-outs that look alike come from different tables or passages of the source.

Legend:
[1] = Host cell cytotoxicity assay (CellTiter-Glo); conditions: human
Description: HepG2 cells were grown in Eagle’s Minimum Essential Medium (MEM) containing 10% FBS, 1% nonessential amino acids (NEAA) and 1% penicillin/streptomycin to >50% confluence prior to harvesting. Cells were suspended in media and 3000 cells per well were added onto 384-well clear bottom plates. Prior to addition of the cell suspension, the screening compounds (250 nl) were predispensed into plates using a liquid handler. Plates were incubated for 48 h at 37°C, 5% CO2. After 48 h of incubation, plates were equilibrated at room temperature for 30 min before luminescence signal was measured using CellTiter-Glo Reagent. Plates were kept at room temperature for 10 min to stabilize the signal and then read using a ViewLux luminescence reader. The HepG2 CC50 (from the host cell cytotoxicity assays) and C. parvum mean EC50 (from parasite growth inhibition assays) values were used to calculate selectivity index.

Cryptosporidium parvum = test: In vitro C. parvum growth inhibition assay (Nluc reporter strain in HCT-8 cells); format: cell-based; conditions: 48 h
Description: Host intestinal epithelial adenocarcinoma (HCT-8) cells were seeded into 96-well plates and grown to 70% confluence in RPMI medium supplemented with L-glutamine, 10% fetal bovine serum (FBS), 0.1 U/mL penicillin, 0.1 μg/mL streptomycin, 0.25 μg/mL amphotericin B and 1 mM sodium pyruvate. The host cell medium was aspirated and replaced with Cryptosporidium infection media (RPMI containing 2% FBS, 0.1 U/mL penicillin, 0.1 μg/mL streptomycin and 0.25 μg/mL amphotericin B) media prior to infection. The HCT-8 cells were infected with bleached and washed Nluc expressing C. parvum oocysts (2,000 oocysts per well) to which 10 μM compounds were added and plates were incubated for 48 h at 37°C, 5% CO2 and luminescence was measured using the protocol described previously ([14], [58]). […] Negative (no drug) and positive control (10 μM nitazoxanide) wells (three replicates each) were also set-up in the same plate. After the incubation, medium was removed and 100 μL of NanoGlo lysis buffer (Promega) was added to the wells followed by incubation for 15 min at 37°C, 5% CO2. The lysate was suspended by pipetting and 100 μL of NanoGlo lysis buffer containing 1:50 of NanoGlo substrate (Promega) was added to each well. […] For the dose response assay, compounds were tested in triplicate wells in two independent experiments and percent luminescence of no drug was calculated.
EC50 values were calculated using a nonlinear regression (curve fit of log-dose versus response) in GraphPad Prism version 8.

Compound | CC50 at 48 h [1] [µM] | inhibition at 10 µM (Cryptosporidium parvum; 10 μM, read-out: inhibition of C. parvum growth) [%] | inhibition at 10 µM (Cryptosporidium parvum; primary screen, 10 μM compound, three technical replicates, read-out: Mean percent inhibition of C. parvum growth) [%]
Cc1ccc(O)cc1Nc1ccnc2ccc(S(C)(=O)=O)cc12 [Compound 5] | 15.8 |  | 
CC(=O)Oc1ccccc1C(=O)Nc1ncc([N+](=O)[O-])s1 [Nitazoxanide, nitazoxanide, reference compound] |  | > 90 | 94.5
